Assay results as given in patent US7012090B1, “Pyranoindoles for treating glaucoma” (Alcon, Inc., priority 2000, dated 2006).
Where a name gives a salt, the structure may show the parent alone.

Assays:
brain 5-HT2 receptors = brain 5-HT2 receptors (Rattus norvegicus, UniProt P14842); experiment: 5HT2 Receptor Binding Assay ([125I]DOI competition); details: inhibition of [125I]DOI binding, rat or human cerebral cortex homogenates
Experimental: 5HT2 Receptor Binding Assay
Aliquots of post mortem rat or human cerebral cortex homogenates (400 μl) dispersed in 50 mM TrisHCl buffer (pH 7.4) are incubated with [^125I]DOI (80 pM final) in the absence or presence of methiothepin (10 μM final) to define total and non-specific binding, respectively, in a total volume of 0.5 ml. The assay mixture is incubated for 1 hour at 23° C. in polypropylene tubes and the assays terminated by rapid vacuum filtration over Whatman GF/B glass fiber filters previously soaked in 0.3% polyethyleneimine using ice-cold buffer. Test compounds (at different concentrations) are substituted for methiothepin. Filter-bound radioactivity is determined by scintillation spectrometry on a beta counter. The data are analyzed using a non-linear, iterative curve-fitting computer program [Trends Pharmacol. Sci., 16, 413 (1995)] to determine the compound affinity parameter. The concentration of the compound needed to inhibit the [^125I]DOI binding by 50% of the maximum is termed the IC50 value.

5-HT2 receptor = molecular target: T1, 5-HT2 receptor (Rattus norvegicus, UniProt P14842); experiment: 5-HT2 Functional Assay: Phosphoinositide (PI) Turnover Assay; type: cell-based; details: for EC50: [3H]inositol phosphate production in A7r5 rat vascular smooth muscle cells; for Emax: A7r5 cells, relative to 5-HT set at 100%, read-out: Efficacy (Emax, %)
T1 construct: [^3H]myo-inositol-labeled A7r5 rat vascular smooth muscle cells; endogenous in cells; host or cells: A7r5 rat vascular smooth muscle cells
Experimental: 5-HT2 Functional Assay: Phosphoinositide (PI) Turnover Assay
The relative agonist activity of serotonergic compounds at the 5-HT2 receptor can be determined in vitro using the ability of the compounds to stimulate the production of [^3H]inositol phosphates in [^3H]myo-inositol-labeled A7r5 rat vascular smooth muscle cells by their ability to activate the enzyme phospholipase C. These cells are grown in culture plates, maintained in a humidified atmosphere of 5% CO2 and 95% air and fed semi-weekly with Dulbecco's modified Eagle medium (DMEM) containing 4.5 g/l glucose and supplemented with 2 mM glutamine, 10 μg/ml gentamicin, and 10% fetal bovine serum. For the purpose of conducting the phosphoinositide (PI) turnover experiments, the A7r5 cells are cultured in 24-well plates as previously [J. Pharmacol. Expt. Ther., 286, 411 (1998)]. Confluent cells are exposed for 24-30 hrs to 1.5 μCi [^3H]-myo-inositol (18.3 Ci/mmol) in 0.5 ml of serum-free medium. Cells are then rinsed once with DMEM/F-12 containing 10 mM LiCl prior to incubation with the test agent (or solvent as the control) in 1.0 ml of the same medium for 1 hr at 37° C., after which the medium is aspirated and 1 ml of cold 0.1 M formic acid added to stop the reaction. The chromatographic separation of [^3H]-inositol phosphates ([^3H]-IPs) on an AG- 1-X8 column is performed as previously described [J. Pharmacol. Expt. Ther. 286, 411 (1998)] with sequential washes with H2O and 50 mM ammonium formate, followed by elution of the total [^3H]-IPs fraction with 1.2 M ammonium formate containing 0.1 M formic acid. The eluate (4 ml) is collected, mixed with 15 ml scintillation fluid, and the total [^3H]-IPs determined by scintillation counting on a beta-counter. Concentration-response data are analyzed by the sigmoidal fit function of the Origin Scientific Graphics software (Microcal Software, Northampton, Mass.) to determine agonist potency (EC50 value) and efficacy (Emax). Serotonin (5-HT) is used as a positive control (standard) agonist compound and the efficacy of test compounds is compared to that of 5-HT (set at 100%). The concentration of the compound needed to stimulate the production of [^3H]-IPs by 50% of the maximum response is termed the EC50 value.

[1] = test system: Lasered (Hypertensive) Eyes of Conscious Cynomolgus Monkeys; experiment: Acute IOP Response in Lasered (Hypertensive) Eyes of Conscious Cynomolgus Monkeys; type: in vivo, Cynomolgus monkey; details: lasered eye
Experimental: Acute IOP Response in Lasered (Hypertensive) Eyes of Conscious Cynomolgus Monkeys
Intraocular pressure (IOP) was determined with an Alcon Pneumatonometer after light corneal anesthesia with 0.1% proparacaine. Eyes were washed with saline after each measurement. After a baseline IOP measurement, test compound was instilled in one 30 μL aliquot to the right eyes only of nine cynomolgus monkeys. Vehicle was instilled in the right eyes of six additional animals. Subsequent IOP measurements were taken at 1, 3, and 6 hours. A compound is considered efficacious in this model of ocular hypertension if there is a decrease in the baseline IOP of the lasered eye (O.D.) of at least 20% following topical administration.

[2] = 1 hour after dose, 300 μg topical
[3] = 3 hours after dose, 300 μg topical
[4] = 6 hours after dose, 300 μg topical

T1 sequence (P14842 whole entry): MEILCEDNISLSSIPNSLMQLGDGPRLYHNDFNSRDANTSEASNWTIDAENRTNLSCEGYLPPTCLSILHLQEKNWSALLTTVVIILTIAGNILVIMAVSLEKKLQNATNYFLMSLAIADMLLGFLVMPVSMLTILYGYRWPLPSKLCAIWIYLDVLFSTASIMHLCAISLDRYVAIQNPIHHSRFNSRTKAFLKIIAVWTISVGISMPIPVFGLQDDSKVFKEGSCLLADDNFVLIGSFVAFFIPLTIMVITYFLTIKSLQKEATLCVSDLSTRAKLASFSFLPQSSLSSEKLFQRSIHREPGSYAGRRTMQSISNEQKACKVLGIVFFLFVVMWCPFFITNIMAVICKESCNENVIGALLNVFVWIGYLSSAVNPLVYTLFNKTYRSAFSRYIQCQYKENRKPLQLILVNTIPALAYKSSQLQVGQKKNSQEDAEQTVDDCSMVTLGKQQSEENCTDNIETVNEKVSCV
Chain of brain 5-HT2 receptors (P14842 whole entry): as above

For CC(N)Cc1cn(C)c2ccc3c(c12)CCCO3 (stereo not drawn) (as salt: hydrochloride) [Example 1, 1-Methyl-2-(3-methyl3,7,8,9-tetrabydro-pyrano[3,2-e]indol-1-yl)-ethylamine hydrochloride], the melting point was 214 to 217 °C.
With COc1cc(C[C@@H](C)N)c(OC)cc1I [(R)-DOI, reference compound] the IC50 (brain 5-HT2 receptors) was 0.46 nM, the EC50 (5-HT2 receptor) was 27.7 nM and the “Percent IOP Reduction ± SEM” value ([1]; 1 hour after dose, 100 μg topical) was 11.0 ± 4.98%. For the same compound, the “Percent IOP Reduction ± SEM” value ([1]; 3 hours after dose, 100 μg topical) was 25.3 ± 2.97% and the “Percent IOP Reduction ± SEM” value ([1]; 6 hours after dose, 100 μg topical) was 34.4 ± 4.98%.
With CC(N)Cc1cn(C)c2ccc3c(c12)CCCO3 (stereo not drawn) [Example 1, 1-Methyl-2-(3-methyl3,7,8,9-tetrabydro-pyrano[3,2-e]indol-1-yl)-ethylamine hydrochloride] the Emax (5-HT2 receptor) was 119%, the EC50 (5-HT2 receptor) was 189 nM and the “Percent IOP Reduction ± SEM” value [1, 2] was 18.8 ± 3.31%. The “Percent IOP Reduction ± SEM” value [1, 3] was 28.0 ± 5.20% and the “Percent IOP Reduction ± SEM” value [1, 4] was 26.1 ± 5.35%.
For CC(N)Cc1c[nH]c2ccc3c(c12)CCCO3.Cl (stereo not drawn) [Example 3, 1-Methyl-2-(3,7,8,9-tetrahydro-pyrano[3,2-e]indol-1-yl)-ethylamine hydrochloride], the Emax (5-HT2 receptor) was 81%, the EC50 (5-HT2 receptor) was 116 nM and the “Percent IOP Reduction ± SEM” value [1, 2] was 16.0 ± 3.79%. The “Percent IOP Reduction ± SEM” value [1, 3] was 28.0 ± 5.49% and the “Percent IOP Reduction ± SEM” value [1, 4] was 22.9 ± 6.70%.
C[C@@H](N)Cc1c[nH]c2ccc3c(c12)CCCO3 [Example 4, (R)-1-Methyl-2-(3,7,8,9-tetrahydro-pyrano[3,2-e]indol-1-yl)ethylamine hydrochloride] showed an Emax (5-HT2 receptor) of 109% and an EC50 (5-HT2 receptor) of 111 nM.
Compound CC(N)Cc1c[nH]c2ccc3c(c12)CC(O)CO3.Cl (stereo not drawn) [Example 6, 1-(2-Aminopropyl)-3,7,8,9-tetrahydro-pyrano[3,2-e]indol-8-ol hydrochloride] has an Emax (5-HT2 receptor) of 92%, an EC50 (5-HT2 receptor) of 300 nM and a melting point of 187 to 192 °C.
